Publication PMC9088311, “Cyclic Thiosulfonates for Thiol-Mediated Uptake: Cascade Exchangers, Transporters, Inhibitors” (JACS Au, 2022)

Assay: Decarboxylation/stability of cyclic carbonate 11 in deuterated buffer
Type: physicochemical
Details: for t50 (decarboxylation of 11 to 12): deuterated buffer/DMSO-d6 95:5, rt
Protocol: Figure 3 (A) Comparison of ring-opening rate constants (k^O) for the exchange reactions of 2, 3, and 11–18 with 10 (Table 1); (a) deuterated buffer/DMSO-d6 95:5, rt, t50 = <15 min, 84 min, 18 h, and ≫24 h at pD 7.9, 6.7, 5.4, and 4.7, respectively. (B) Dynamic covalent ring opening of CTO 3 and thiol 10 to give product 9. (C) Original kinetic data for the equilibration of 3 with 10 at pD 2.7 in deuterated phosphate buffer/DMSO-d6 9:1. Gold triangles: 3; purple circles: 9; filled diamonds: 10; empty diamonds: homo-disulfide of 10. (D) Dependence of K (filled circles) and rate constants (relative, k at 90% D2O as 1, k^O filled diamonds, k^C empty diamonds) for 3 with 10 at pD 2.7 (estimate) on solvent polarity. (E–G) Fluoride complexes of 1,2-dithiane 1,1-dioxide (E), 1,2-dithiane 1-oxide (F), and 1,2-dithiane (G), calculated with M06-2X/6-311++G** (green: F^–, yellow: S, red: O, gray: C, white: H). (H, I) Chloride complexes of 3 (H) and 1 (I, green: Cl^–, in parentheses: bond length for F^–). (J) Fragmentation of 11 with 10; (b) 10, DMSO-d6, rt.
The strained cyclic carbonate 11 was considered to accelerate CTO opening and further stabilize the opened form (entry 12). However, at pD 7.9, carbonate 11 decarboxylated within 15 min to CTO alkene 12. This degradation decelerated with decreasing pD to afford stable carbonate 11 for at least 1 day at pD 4.7 (Figure 3A). Ring opening of 11 was too fast even at pD 2.7, it proceeded to near completion with a >100× higher rate than 3. Decarboxylated alkene 12 reacted also very fast, the apparently lower rate is the consequence of more favorable ring closure back to 12 due to preorganization by the cis alkene (entry 13). The alternative Michael addition of thiol 10 to alkene 12 was not observed (Figure S12).

In the case of `O=C1O[C@H]2CSS(=O)(=O)C[C@H]2O1` [Compound 11], the “t50 (decarboxylation of 11 to 12)” value (pD 4.7) is reported as > 24 h, the “t50 (decarboxylation of 11 to 12)” value (pD 5.4) is reported as 18 h and the “t50 (decarboxylation of 11 to 12)” value (pD 6.7) is reported as 1.4 h. The “t50 (decarboxylation of 11 to 12)” value (pD 7.9) was < 0.25 h, the time stable (pD 4.7) was “at least 1 day” and the “time of decarboxylation to CTO alkene 12” value (pD 7.9) was ≤ 15 min.
